Our source for the MIC values is patent US5001156A, “Lipophilic quaternary ammonium salicylates, their use in cosmetics and in dermopharmacy” (priority 1986, dated 1991).

Where only a bound is given, the exact number is not on record here.

The experiment deals with Propionibacterium acnes strain ATCC 6919. The experiment can be described thus: Minimal Inhibitory Concentration (MIC) by the dilution method.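 Further: MIC reported in µg/ml.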 Type of experiment: cell-based. The following applies: Propionibacterium acnes ATCC 6919, DMSO.

The MIC is the least concentration at which growth counts as inhibited. Read a low MIC as greater potency. For the compound “N-hexadecyl-N,N,N-trimethylammonium 5-decanoylsalicylate [Compound 5]”, the MIC came out at 2.3 mg/L.
As for “N-(2-Hydroxyethyl)-N,N,N-trimethylammonium salicylate [Compound 19, reference compound]”, the figure is above 100 mg/L.
In the case of “N-Hexadecyl-N,N,N-trimethylammonium salicylate [Compound 1, reference compound]”, the minimal inhibitory concentration (MIC) was 21 mg/L.
As for “N-benzyl-N,N-dimethyl-N-hexadecylammonium 5-decanoylsalicylate [Compound 11]”, the figure is 1.5 mg/L.
The result for “dimethylethyldodecylammonium 5-decanoylsalicylate [Compound 16]” reads 6.2 mg/L; that for `CCCCCCCCCCCC(=O)c1ccc(O)c(C(=O)[O-])c1.C[N+](C)(C)C` [Compound 15, N,N,N,N-tetramethylammonium 5-dodecanoylsalicylate], 2.5 mg/L; that for “N-hexadecylpyridinium 5-octanoylsalicylate monohydrate [Compound 7]”, 2.4 mg/L.
The result for “trimethyl-(β-hydroxyethyl)ammonium 5-decanoylsalicylate [Compound 17]” reads 11 mg/L; that for “trimethyl-(β-hydroxyethyl)ammonium 5-dodecanoylsalicylate [Compound 18]”, 4.8 mg/L; that for “N-benzyl-N,N-dimethyl-N-hexadecylammonium 5-dodecanoylsalicylate [Compound 12]”, 1 mg/L.
For “N-dodecyl-N-methylmorpholinium 5-decanoylsalicylate [Compound 21]”, the MIC amounted to 9 mg/L.
As for “N-benzyl-N,N-dimethyl-N-hexadecylammonium 5-octanoylsalicylate [Compound 10]”, the figure is 0.54 mg/L; as for `CC(C)(C)CC(C)(C)c1ccc(OCCOCC[N+](C)(C)Cc2ccccc2)cc1.CCCCCCCC(=O)c1ccc(O)c(C(=O)[O-])c1` [Compound 24, benzethonium 5-octanoylsalicylate], 1.2 mg/L; as for “N-hexadecyl-N,N,N-trimethylammonium 5-octanoylsalicylate [Compound 4]”, 8 mg/L.
As for “N-hexadecyl-N,N-dimethyl-N-(β-hydroxyethyl)ammonium 5-decanoylsalicylate [Compound 14]”, the figure is 3.6 mg/L; as for `CC(C)(C)CC(C)(C)c1ccc(OCCOCC[N+](C)(C)Cc2ccccc2)cc1.CCCCCCCCCCCC(=O)c1ccc([O-])c(C(=O)O)c1` [Compound 25, benzethonium 5-dodecanoylsalicylate], 2 mg/L.
“N-methyl-N-octylpiperidinium 5-dodecanoylsalicylate [Compound 22]” gave an MIC of 4.9 mg/L.
In turn, “N-benzyl-N,N,N-trimethylammonium 5-decanoylsalicylate [Compound 13]” came in with a minimal inhibitory concentration (MIC) of 3.2 mg/L.
As for “N-hexadecyl-N-methylimidazolinium 5-dodecanoylsalicylate [Compound 20]”, the figure is 13.5 mg/L.
In turn, “Hexadecyltrimethylammonium laurate [Compound 2, reference compound]” gave a minimal inhibitory concentration (MIC) of 26 mg/L. Compared with the last compound, the MIC is about 1.9-fold higher.
The result for `CCCCCCCCCCCC(=O)c1ccc(O)c(C(=O)[O-])c1.CCCCCCCCCCCCCCCC[N+]12CCN(CC1)CC2` [Compound 23, 1'-azonia-4'-azabicyclo[2.2.2]octylhexadecane 5-dodecanoylsalicylate] reads 1.5 mg/L.
Turning to “Hexadecyltrimethylammonium stearate [Compound 3, reference compound]”, the MIC came to 25 mg/L.
Take “N-hexadecylpyridinium 5-decanoylsalicylate sesquihydrate [Compound 8]”: the MIC is 1.2 mg/L.
Compound “N-hexadecylpyridinium 5-dodecanoylsalicylate hydrate [Compound 9]” came in with an MIC of 1.2 mg/L.
The result for “N-hexadecyl-N,N,N-trimethylammonium 5-dodecanoylsalicylate [Compound 6]” reads 3.2 mg/L.
